{
  "source": "PubChem BioAssay AID328",
  "about": "(DTP/NCI, 2004)",
  "system": "BDF1 mice, P388 leukemia ip, median survival T/C",
  "experiment": "NCI In Vivo Anticancer Drug Screen. Data for tumor model P388 Leukemia (intraperitoneal) in B6D2F1 (BDF1) mice",
  "conditions": "endpoint: median survival time, higher = longer survival",
  "summary_of_the_method": "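Vehicle-dosed animals serve as the reference; survival of compound-dosed, tumour-implanted mice is divided by it.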",
  "note": "Where “and” joins values, the source holds several entries; their conditions need not be identical. Equal entries are not always repeated. Toxic doses and inconclusive results are not listed.",
  "data": [
    {"smiles": "COc1cc2c(cc1OC)C1CCc3cc4c(cc3C1N=C2)OCO4", "note": "(stereo not given)", "values": [
      {"measurement": "T/C", "setting": "dose: 20.0 mg/kg/injection, schedule: Q01DX009 (ip), vehicle: saline", "value": "100 % of control"},
      {"measurement": "T/C", "setting": "dose: 40.0 mg/kg/injection, schedule: Q01DX009 (ip), vehicle: saline", "value": "105 % of control"},
      {"measurement": "T/C", "setting": "dose: 80.0 mg/kg/injection, schedule: Q01DX009 (ip), vehicle: saline", "value": "105 % of control"},
      {"measurement": "T/C", "setting": "dose: 120.0 mg/kg/injection, schedule: Q01DX009 (ip), vehicle: saline", "value": "105 % of control"},
      {"measurement": "T/C", "setting": "dose: 240.0 mg/kg/injection, schedule: Q01DX009 (ip), vehicle: saline", "value": "100 % of control"}
    ]},
    {"smiles": "CCCCCCCCCCCCCCCCC(C(=O)O)C(O)(CC(=O)O)C(=O)O", "note": "(stereo not given)", "values": [
      {"measurement": "T/C", "setting": "dose: 25.0 mg/kg/injection, schedule: Q01DX010 (ip), vehicle: saline", "value": "104 % of control"},
      {"measurement": "T/C", "setting": "dose: 50.0 mg/kg/injection, schedule: Q01DX010 (ip), vehicle: saline", "value": "100 % of control"}
    ]},
    {"smiles": "C=C/C=C/CCC(=O)C=[N+]=[N-]", "values": [
      {"measurement": "T/C", "setting": "dose: 50.0 mg/kg/injection, schedule: Q01DX005 (ip), vehicle: saline with Tween-80", "value": "91 % of control"},
      {"measurement": "T/C", "setting": "dose: 100.0 mg/kg/injection, schedule: Q01DX005 (ip), vehicle: saline with Tween-80", "value": "97 % of control"},
      {"measurement": "T/C", "setting": "dose: 200.0 mg/kg/injection, schedule: Q01DX005 (ip), vehicle: saline with Tween-80", "value": "101 % of control"}
    ]},
    {"smiles": "O=CNc1ccccc1Cl", "values": [
      {"measurement": "T/C", "setting": "dose: 100.0 mg/kg/injection, schedule: Q01DX001 (ip), vehicle: saline with Tween-80", "value": "112 % of control"},
      {"measurement": "T/C", "setting": "dose: 200.0 mg/kg/injection, schedule: Q01DX001 (ip), vehicle: saline with Tween-80", "value": "91 % of control"},
      {"measurement": "T/C", "setting": "dose: 400.0 mg/kg/injection, schedule: Q01DX001 (ip), vehicle: saline with Tween-80", "value": "91 % of control"}
    ]},
    {"smiles": "CC(=O)OCc1c(COC(C)=O)c(-c2ccc(Cl)cc2)n2c1CCC2", "values": [
      {"measurement": "T/C", "setting": "dose: 12.5 mg/kg/injection, schedule: Q01DX009 (ip), vehicle: Klucel (hydroxypropylcellulose) (HPC)", "value": "119 % of control"},
      {"measurement": "T/C", "setting": "dose: 25.0 mg/kg/injection, schedule: Q01DX009 (ip), vehicle: Klucel (hydroxypropylcellulose) (HPC)", "value": "123 % of control"},
      {"measurement": "T/C", "setting": "dose: 50.0 mg/kg/injection, schedule: Q01DX009 (ip), vehicle: Klucel (hydroxypropylcellulose) (HPC)", "value": "98 % of control"}
    ]},
    {"smiles": "Oc1cc(O)c(CN(CCCl)CCCl)cc1CN(CCCl)CCCl", "values": [
      {"measurement": "T/C", "setting": "dose: 1.0 mg/kg/injection, schedule: Q01DX009 (ip), vehicle: saline", "value": "118 % of control"},
      {"measurement": "T/C", "setting": "dose: 1.5 mg/kg/injection, schedule: Q01DX009 (ip), vehicle: saline", "value": "118 % of control"},
      {"measurement": "T/C", "setting": "dose: 2.4 mg/kg/injection, schedule: Q01DX009 (ip), vehicle: saline", "value": "157 % of control"},
      {"measurement": "T/C", "setting": "dose: 3.6 mg/kg/injection, schedule: Q01DX009 (ip), vehicle: saline", "value": "182 % of control"},
      {"measurement": "T/C", "setting": "dose: 5.4 mg/kg/injection, schedule: Q01DX009 (ip), vehicle: saline", "value": "166 % of control"},
      {"measurement": "T/C", "setting": "dose: 5.5 mg/kg/injection, schedule: Q01DX009 (ip), vehicle: saline", "value": "168 % of control"},
      {"measurement": "T/C", "setting": "dose: 8.2 mg/kg/injection, schedule: Q01DX009 (ip), vehicle: saline", "value": "176 % of control"},
      {"measurement": "T/C", "setting": "dose: 8.25 mg/kg/injection, schedule: Q01DX009 (ip), vehicle: saline", "value": "165 % of control and 180 % of control"},
      {"measurement": "T/C", "setting": "dose: 9.9 mg/kg/injection, schedule: Q04DX003 (ip), vehicle: saline", "value": "163 % of control"},
      {"measurement": "T/C", "setting": "dose: 15.0 mg/kg/injection, schedule: Q04DX003 (ip), vehicle: saline", "value": "220 % of control"},
      {"measurement": "T/C", "setting": "dose: 16.0 mg/kg/injection, schedule: Q01DX009 (ip), vehicle: saline", "value": "194 % of control"},
      {"measurement": "T/C", "setting": "dose: 18.75 mg/kg/injection, schedule: Q01DX009 (ip), vehicle: saline", "value": "195 % of control and 200 % of control"},
      {"measurement": "T/C", "setting": "dose: 23.0 mg/kg/injection, schedule: Q04DX003 (ip), vehicle: saline", "value": "160 % of control"},
      {"measurement": "T/C", "setting": "dose: 25.0 mg/kg/injection, schedule: Q01DX009 (ip), vehicle: saline", "value": "162 % of control and 202 % of control and 222 % of control"},
      {"measurement": "T/C", "setting": "dose: 35.0 mg/kg/injection, schedule: Q01DX009 (ip), vehicle: saline", "value": "185 % of control"},
      {"measurement": "T/C", "setting": "dose: 35.0 mg/kg/injection, schedule: Q04DX003 (ip), vehicle: saline", "value": "190 % of control and 200 % of control"},
      {"measurement": "T/C", "setting": "dose: 50.0 mg/kg/injection, schedule: Q01DX009 (ip), vehicle: saline", "value": "150 % of control"},
      {"measurement": "T/C", "setting": "dose: 55.0 mg/kg/injection, schedule: Q04DX003 (ip), vehicle: saline", "value": "250 % of control and 212 % of control"},
      {"measurement": "T/C", "setting": "dose: 80.0 mg/kg/injection, schedule: Q04DX003 (ip), vehicle: saline", "value": "250 % of control and 208 % of control"},
      {"measurement": "T/C", "setting": "dose: 100.0 mg/kg/injection, schedule: Q01DX009 (ip), vehicle: saline", "value": "86 % of control"},
      {"measurement": "T/C", "setting": "dose: 200.0 mg/kg/injection, schedule: Q01DX009 (ip), vehicle: saline", "value": "177 % of control"}
    ]},
    {"smiles": "c1ccc(COc2ccc(OCc3ccccc3)cc2)cc1", "values": [
      {"measurement": "T/C", "setting": "dose: 75.0 mg/kg/injection, schedule: Q04DX003 (ip), vehicle: saline with Tween-80", "value": "104 % of control"},
      {"measurement": "T/C", "setting": "dose: 150.0 mg/kg/injection, schedule: Q04DX003 (ip), vehicle: saline with Tween-80", "value": "109 % of control"},
      {"measurement": "T/C", "setting": "dose: 300.0 mg/kg/injection, schedule: Q04DX003 (ip), vehicle: saline with Tween-80", "value": "104 % of control"}
    ]}
  ]
}
